Data reported in patent US11142515B2, “Pyrazolyl-ureas as kinase inhibitors” (RESPIVERT LIMITED, priority 2014, dated 2021).

Experiments:
Syk = molecular target: T1, Syk (Homo sapiens, UniProt P43405); test: Syk enzyme inhibition (Z-LYTE FRET); format: biochemical; settings: for IC50: Table 2A
T1 construct: purchased Life Technologies
Procedure, shortened: (§1)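 Enzyme (1000, 1400 or 2000 ng/mL stocks for c-Src, Hck, Syk respectively) preincubated 2 h at RT with compound (0.0012–40 μg/mL series), then FRET peptide plus ATP (800 μM c-Src; 60 μM Hck, Syk stocks) for 1 h. Protease development 1 h; phosphorylation from coumarin/fluorescein emission ratio.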

[1] = system: alveolar macrophages and neutrophils in BALF; test: Cigarette smoke model: macrophages and neutrophils in BALF; format: in vivo, A/J mice; settings: mice; for Cell numbers in BALF, Macrophage / Cell numbers in BALF, Macrophage, % inhibition / Cell numbers in BALF, Neutrophil / Cell numbers in BALF, Neutrophil, % inhibition: tobacco smoke
Experimental: A/J mice (males, 5 weeks old) were exposed to cigarette smoke (4% cigarette smoke, diluted with air) for 30 min/day for 11 days using a Tobacco Smoke Inhalation Experiment System for small animals (Model SIS-CS; Sibata Scientific Technology, Tokyo, Japan). […] At 12 h after the last […], each of the animals was anesthetized, the trachea cannulated and bronchoalveolar lavage fluid (BALF) was collected. The numbers of alveolar macrophages and neutrophils were determined by FACS analysis (EPICS® ALTRA II, Beckman Coulter, Inc., Fullerton, Calif., USA) using anti-mouse MOMA2 antibody (macrophage) or anti-mouse 7/4 antibody (neutrophil). BALF was centrifuged and the supernatant was collected. The level of keratinocyte chemoattractant (KC; CXCL1) in BALF was quantitated using a Quantikine® mouse KC ELISA kit (R&D systems, Inc., Minneapolis, Minn., USA).

d-U937 cells = test: Cell viability: MTT assay in differentiated U937 cells; format: cell-based, human; settings: 10 μg/mL
Procedure, shortened: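 Differentiated U937 cells exposed to compound at a final 10 μg/mL, either 4 h in 5% FCS RPMI1640 or 24 h in 10% FCS RPMI1640. MTT added for 1 h, formazan dissolved in DMSO, absorbance read at 550 nm; % viability loss relative to 0.5% DMSO vehicle, with increases shown as negative values.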

c-Src = molecular target: T2, c-Src (Homo sapiens, UniProt P12931); test: c-Src enzyme inhibition (Z-LYTE FRET); format: biochemical; settings: Table 2A
T2 construct: purchased Life Technologies
Procedure, shortened: as §1

[2] = system: ICAM-1 expression in BEAS2B cells; test: Poly I:C-induced ICAM-1 expression in BEAS2B cells; format: cell-based; settings: Homo sapiens, BEAS-2B, read-out: PolyIC/ICAM1 IC50 (BEAS2B)
Procedure, shortened: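 Human bronchial epithelial BEAS2B cells pre-treated 2 h with compound, then transfected with Poly I:C (1 μg/mL) via Oligofectamine. After 18 h, surface ICAM-1 measured by cell-based ELISA (OD450-655), normalized to crystal violet cell number (OD595); inhibition calculated against vehicle control.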

T2 sequence (P12931 whole entry): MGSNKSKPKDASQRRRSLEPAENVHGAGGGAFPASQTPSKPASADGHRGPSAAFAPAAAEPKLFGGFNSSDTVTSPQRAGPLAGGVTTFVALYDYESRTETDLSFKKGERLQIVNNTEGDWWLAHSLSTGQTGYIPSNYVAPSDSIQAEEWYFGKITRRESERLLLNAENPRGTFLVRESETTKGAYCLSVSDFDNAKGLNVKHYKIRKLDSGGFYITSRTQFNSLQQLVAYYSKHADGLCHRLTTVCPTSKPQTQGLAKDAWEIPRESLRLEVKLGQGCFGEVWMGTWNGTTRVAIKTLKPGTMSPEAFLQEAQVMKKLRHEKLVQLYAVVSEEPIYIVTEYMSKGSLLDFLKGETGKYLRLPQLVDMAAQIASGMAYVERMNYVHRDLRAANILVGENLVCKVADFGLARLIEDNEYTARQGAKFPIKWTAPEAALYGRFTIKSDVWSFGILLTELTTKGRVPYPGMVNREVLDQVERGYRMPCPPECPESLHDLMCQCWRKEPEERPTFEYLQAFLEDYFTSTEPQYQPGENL

| IC50 (Syk) | IC50 (c-Src) | SMILES | inhibitory activity against Syk (in words) (Syk) | Cell numbers in BALF, Macrophage ([1]; 0.07 μg/mouse) | Cell numbers in BALF, Macrophage, % inhibition ([1]; 0.07 μg/mouse) | Cell numbers in BALF, Neutrophil ([1]; 0.07 μg/mouse) | Cell numbers in BALF, Neutrophil, % inhibition ([1]; 0.07 μg/mouse) | Cell numbers in BALF, Macrophage ([1]; 0.7 μg/mouse) | Cell numbers in BALF, Macrophage, % inhibition ([1]; 0.7 μg/mouse) | Cell numbers in BALF, Neutrophil ([1]; 0.7 μg/mouse) | Cell numbers in BALF, Neutrophil, % inhibition ([1]; 0.7 μg/mouse) | Cell numbers in BALF, Macrophage ([1]; 7 μg/mouse) | Cell numbers in BALF, Macrophage, % inhibition ([1]; 7 μg/mouse) | Cell numbers in BALF, Neutrophil ([1]; 7 μg/mouse) | Cell numbers in BALF, Neutrophil, % inhibition ([1]; 7 μg/mouse) | macrophage and neutrophil accumulation in BALF induced by cigarette smoke (in words) [1] | MTT Assay Cell viability at time point indicated in d-U937 Cells, 4 h (d-U937 cells) | MTT Assay Cell viability at time point indicated in d-U937 Cells, 24 h (d-U937 cells) | IC50 [2] |
| --- | --- | --- | --- | --- | --- | --- | --- | --- | --- | --- | --- | --- | --- | --- | --- | --- | --- | --- | --- |
| > 16700 nM | 98 nM | Cc1ccc(-n2nc(C(C)(C)C)cc2NC(=O)Nc2ccc(OCc3ccnc(Nc4cnccn4)c3)c3ccccc23)cc1 [Example 1, 1-(3-(tert-Butyl)-1-(p-tolyl)-1H-pyrazol-5-yl)-3-(4-((2-(pyrazin-2-ylamino)pyridin-4-yl)methoxy)naphthalen-1-yl)urea] | very much weaker than the Reference Compound | 172700 mL⁻¹ | 10.2% | 94200 mL⁻¹ | 13.7% | 149200 mL⁻¹ | 26.5% | 76600 mL⁻¹ | 33.7% | 113400 mL⁻¹ | 51.1% | 60400 mL⁻¹ | 52.0% | dose-dependent inhibition | − (−ve and +ve indicate the value is below and above, respectively, the no significant effect threshold defined as 30% inhibition at 10 μg/mL at the time point indicated) | − (−ve and +ve indicate the value is below and above, respectively, the no significant effect threshold defined as 30% inhibition at 10 μg/mL at the time point indicated) | 81.8 nM |
| > 14900 nM | 35 nM | CNC(=O)Cc1cnc(Nc2cc(COc3ccc(NC(=O)Nc4cc(C(C)(C)C)nn4-c4ccc(C)cc4)c4ccccc34)ccn2)cn1 [Example 33] | – | – | – | – | – | – | – | – | – | – | – | – | – | – | − (−ve and +ve indicate the value is below and above, respectively, the no significant effect threshold defined as 30% inhibition at 10 μg/mL at the time point indicated) | − (−ve and +ve indicate the value is below and above, respectively, the no significant effect threshold defined as 30% inhibition at 10 μg/mL at the time point indicated) | 150 nM |
| > 15700 nM | 34 nM | Cc1ccc(-n2nc(C(C)(C)C)cc2NC(=O)Nc2ccc(OCc3ccnc(Nc4cncc(C5CC5)n4)c3)c3ccccc23)cc1 [Example 15] | – | – | – | – | – | – | – | – | – | – | – | – | – | – | − (−ve and +ve indicate the value is below and above, respectively, the no significant effect threshold defined as 30% inhibition at 10 μg/mL at the time point indicated) | − (−ve and +ve indicate the value is below and above, respectively, the no significant effect threshold defined as 30% inhibition at 10 μg/mL at the time point indicated) | 15.7 nM |
| > 16300 nM | 160 nM | Cc1ccc(-n2nc(C(C)(C)C)cc2NC(=O)Nc2ccc(OCc3ccnc(Nc4cnccn4)c3)c3ccccc23)cc1C [Example 51] | – | – | – | – | – | – | – | – | – | – | – | – | – | – | − (−ve and +ve indicate the value is below and above, respectively, the no significant effect threshold defined as 30% inhibition at 10 μg/mL at the time point indicated) | − (−ve and +ve indicate the value is below and above, respectively, the no significant effect threshold defined as 30% inhibition at 10 μg/mL at the time point indicated) | 281 nM |
